Experiments:
Staphylococcus aureus = experiment: Minimum inhibitory concentration (MIC) in vitro, agar dilution method, quality control strain; assay type: cell-based; details: strain S. AT C C25923 (Table 7 No. 1); hydrate
Text: Hydrates Samples: • The 1/2 hydrates prepared according to Example 2; • Content (purity % wt): 99.0%; • The 1/12 hydrates prepared according to Example 253; • Content (purity % wt): 98.9%; • The 2/7 hydrates prepared according to Example 106; • Content (purity % wt): 98.8%; • The 2/5 hydrates prepared according to Example 162; • Content (purity % wt): 99.0%; • The 3/4 hydrates prepared according to Example 337; • Content (purity % wt): 98.8%; • Preparation: dissolved in DMSO, and further diluted with sterile distilled water to desired concentration. • The hydrates samples were supplied by Sichuan Beilike Biotechnology LTD.
Anhydrous Sample: • The anhydrous compounds prepared according to Example 1. • Content (purity % wt): 98.6%; • Preparation: dissolved in DMSO, and further diluted with sterile distilled water to desired concentration; • The anhydrous sample was supplied by Sichuan Beilike Biotechnology LTD.
Control Samples • Vancomycin: provided by Sichuan Beilike Biotechnology LTD, purchased from Eli Lilly Japan K.K. • Lot No.: WM16151 (production date: Apr. 10, 2007, expiration date: Apr. 9, 2009). • Specification: 500 mg/bottle; solubility (physicochemical properties): soluble in water. • Linezolid (LZ): provided by Sichuan Beilike Biotechnology LTD.
Bacteria Strains • Clinically isolated strains: clinically isolated bacterial pathogens collected in Sichuan and Beijing areas from March 2007 to May 2008. • Species include: Staphylococcus aureus MRSA, Staphylococcus aureus MSSA, S. epidermidis MRSE, S. epidermidis MSSE, E. feacalis, and E. feacium, a total of 51 strains. • Quality control strains: Staphylococcus aureus […] strain kept in Sichuan Industrial Institute of Antibiotics, purchased from the medical testing center of the Ministry of Health, China.
Experimental Method: • Measurement of the minimum inhibitory concentration (MIC) in vitro: • The minimum inhibitory concentration (MIC) of each test sample against test strains was measured by using the agar dilution method recommended by the U.S. National Committee for Clinical Laboratory Standards (CLSI/NCCIs).
Based on the CLSI/NCCL's testing standard with respect to vancomycin and linezolid (see Table 6), the minimum inhibitory concentration (MIC) values of every strain were reported, and the MIC50 (the concentration that inhibits 50% of the different strains of bacteria), MIC90 (the concentration that inhibits 90% of the different strains of bacteria), and MICrange (the range of the MIC value of the tested strains) were observed.

[1] = Solubility in different solvents according to Chinese Pharmacopeia (2005 edition); assay type: physicochemical; details: for Result: at the given solute:solvent ratio
Description: The solubility of the (S)—[N-3-(3′-fluoro-4′-(4″-phenylpiperazinyl))phenyl-2-oxo-5-oxazolelidinyl]methylacetamide hydrates was tested with different solvents, and the test results are shown in Tables 15-19. The solubility was measured according to Chinese Pharmacopeia (2005 edition).

E. feacalis = experiment: Minimum inhibitory concentration (MIC) in vitro, agar dilution method; assay type: cell-based; details: hydrate
How it was run: (§1)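 MIC50, MIC90 and MIC range were compiled from per-strain MICs obtained by the agar dilution method recommended by CLSI/NCCLS, using clinically isolated strains from Sichuan and Beijing.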

S. epidermidis MSSE = experiment: as above; assay type: cell-based; details: hydrate
How it was run: as §1

[2] = system: Staphylococcus aureus MSSA; experiment: as above; assay type: cell-based; details: hydrate
How it was run: as §1

[3] = system: Staphylococcus aureus MRSA; experiment: as above; assay type: cell-based; details: hydrate
How it was run: as §1

S. epidermidis MRSE = experiment: as above; assay type: cell-based; details: hydrate
How it was run: as §1

E. feacium = experiment: as above; assay type: cell-based; details: hydrate
How it was run: as §1

[4] = E. feacalis (5 strains), clinically isolated
[5] = S. ep MSSE (10 strains), clinically isolated
[6] = S. MSSA (11 strains), clinically isolated
[7] = S. MRSA (10 strains), clinically isolated
[8] = S. ep MRSE (10 strains), clinically isolated
[9] = E. feacium (5 strains), clinically isolated

CC(=O)NC[C@H]1CN(c2ccc(N3CCN(c4ccccc4)CC3)c(F)c2)C(=O)O1 [1/12 hydrate, (S)—[N-3-(3′-fluoro-4′-(4″-phenylpiperazinyl))phenyl-2-oxo-5-oxazolidinyl]methyl acetamide 1/12 hydrate]
MIC (Staphylococcus aureus): 0.5 µg/mL
Solubility compared with the anhydride ([1]; different solvents): sometimes more soluble than the anhydride
Result ([1]; solvent 0.1N Hydrochloric acid): Dissolved
Result ([1]; solvent 0.1N Sodium hydroxide): Insoluble
Result ([1]; solvent Acetonitrile): Dissolved
Result ([1]; solvent Ethanol): Dissolved
Result ([1]; solvent Methanol): Dissolved
Result ([1]; solvent Water, hydrate): Dissolved
MIC50 (E. feacalis; [4]): 0.125 µg/mL
MIC90 (E. feacalis; [4]): 0.25 µg/mL
MICrange (E. feacalis; [4]): 0.06 to 0.25 µg/mL
MIC (E. feacalis; strain Efa 116 (Table 8 No. 16)): 0.25 µg/mL
MIC (E. feacalis; strain Efa 907 (Table 8 No. 19)): 0.06 µg/mL
MIC50 (S. epidermidis MSSE; [5]): 0.25 µg/mL
MIC90 (S. epidermidis MSSE; [5]): 0.5 µg/mL
MICrange (S. epidermidis MSSE; [5]): 0.125 to 0.5 µg/mL
MIC (S. epidermidis MSSE; strain S. ep MSSE87 (Table 7 No. 23)): 0.125 µg/mL
MIC (S. epidermidis MSSE; strain S. ep MSSE88 (Table 8 No. 5)): 0.5 µg/mL
MIC (S. epidermidis MSSE; strain S. ep MSSE113 (Table 7 No. 24)): 0.25 µg/mL
MIC (S. epidermidis MSSE; strain S. ep MSSE116 (Table 7 No. 25)): 0.125 µg/mL
MIC (S. epidermidis MSSE; strain S. ep MSSE118 (Table 8 No. 2)): 0.5 µg/mL
MIC (S. epidermidis MSSE; strain S. ep MSSE119 (Table 7 No. 27)): 0.125 µg/mL
MIC (S. epidermidis MSSE; strain S. ep MSSE137 (Table 8 No. 4)): 0.5 µg/mL
MIC (S. epidermidis MSSE; strain S. ep MSSE140 (Table 8 No. 3)): 0.5 µg/mL
MIC (S. epidermidis MSSE; strain S. ep MSSE142 (Table 7 No. 26)): 0.5 µg/mL
MIC (S. epidermidis MSSE; strain S. ep MSSE153 (Table 8 No. 1)): 0.5 µg/mL
MIC50 [2, 6]: 0.5 µg/mL
MIC90 [2, 6]: 0.5 µg/mL
MICrange [2, 6]: 0.25 to 0.5 µg/mL
MIC ([2]; strain S. MSSA 123 (Table 7 No. 3)): 0.5 µg/mL
MIC ([2]; strain S. MSSA 187 (Table 7 No. 7)): 0.5 µg/mL
MIC ([2]; strain S. MSSA 195 (Table 7 No. 6)): 0.5 µg/mL
MIC ([2]; strain S. MSSA 195 (Table 7 No. 12)): 0.5 µg/mL
MIC ([2]; strain S. MSSA 201 (Table 7 No. 11)): 0.25 µg/mL
MIC ([2]; strain S. MSSA 232 (Table 7 No. 2)): 0.5 µg/mL
MIC ([2]; strain S. MSSA 275 (Table 7 No. 10)): 1 µg/mL
MIC ([2]; strain S. MSSA 466 (Table 7 No. 8)): 0.25 µg/mL
MIC ([2]; strain S. MSSA 519 (Table 7 No. 9)): 0.5 µg/mL
MIC ([2]; strain S. MSSA 520 (Table 7 No. 4)): 0.5 µg/mL
MIC ([2]; strain S. MSSA 580 (Table 7 No. 5)): 0.25 µg/mL
MIC50 [3, 7]: 0.5 µg/mL
MIC90 [3, 7]: 0.5 µg/mL
MICrange [3, 7]: 0.25 to 0.5 µg/mL
MIC ([3]; strain S. MRSA 29 (Table 7 No. 15)): 1 µg/mL
MIC ([3]; strain S. MRSA 101 (Table 7 No. 14)): 0.5 µg/mL
MIC ([3]; strain S. MRSA 201 (Table 7 No. 13)): 0.5 µg/mL
MIC ([3]; strain S. MRSA B27 (Table 7 No. 21)): 0.5 µg/mL
MIC ([3]; strain S. MRSA B105 (Table 7 No. 17)): 0.5 µg/mL
MIC ([3]; strain S. MRSA B143 (Table 7 No. 19)): 0.5 µg/mL
MIC ([3]; strain S. MRSA B151 (Table 7 No. 20)): 0.5 µg/mL
MIC ([3]; strain S. MRSA B164 (Table 7 No. 16)): 0.5 µg/mL
MIC ([3]; strain S. MRSA B199 (Table 7 No. 22)): 1 µg/mL
MIC ([3]; strain S. MRSA B617 (Table 7 No. 18)): 0.25 µg/mL
MIC50 (S. epidermidis MRSE; [8]): 0.25 µg/mL
MIC90 (S. epidermidis MRSE; [8]): 0.5 µg/mL
MICrange (S. epidermidis MRSE; [8]): 0.06 to 0.5 µg/mL
MIC (S. epidermidis MRSE; strain S. ep MRSE4 (Table 8 No. 9)): 0.125 µg/mL
MIC (S. epidermidis MRSE; strain S. ep MRSE20 (Table 8 No. 6)): 0.25 µg/mL
MIC (S. epidermidis MRSE; strain S. ep MRSE87 (Table 8 No. 13)): 0.25 µg/mL
MIC (S. epidermidis MRSE; strain S. ep MRSE90 (Table 8 No. 10)): 0.125 µg/mL
MIC (S. epidermidis MRSE; strain S. ep MRSE101 (Table 8 No. 7)): 0.06 µg/mL
MIC (S. epidermidis MRSE; strain S. ep MRSE105 (Table 8 No. 11)): 0.25 µg/mL
MIC (S. epidermidis MRSE; strain S. ep MRSE140 (Table 8 No. 14)): 0.5 µg/mL
MIC (S. epidermidis MRSE; strain S. ep MRSE142 (Table 8 No. 12)): 0.25 µg/mL
MIC (S. epidermidis MRSE; strain S. ep MRSE210 (Table 8 No. 15)): 0.25 µg/mL
MIC (S. epidermidis MRSE; strain S. ep MRSE211 (Table 8 No. 8)): 0.25 µg/mL
MIC50 (E. feacium; [9]): 0.5 µg/mL
MIC90 (E. feacium; [9]): 1 µg/mL
MICrange (E. feacium; [9]): 0.25 to 1 µg/mL
MIC (E. feacium; strain Efm 98 (Table 8 No. 21)): 0.25 µg/mL
MIC (E. feacium; strain Efm 171 (Table 8 No. 25)): 0.5 µg/mL
MIC (E. feacium; strain Efm 197 (Table 8 No. 22)): 0.5 µg/mL
MIC (E. feacium; strain Efm N3 (Table 8 No. 23)): 1 µg/mL
MIC (E. feacium; strain Efm N4 (Table 8 No. 24)): 0.5 µg/mL
